Data from article PMC9101373, “Design of DNA Intercalators Based on 4-Carboranyl-1,8-Naphthalimides: Investigation of Their DNA-Binding Ability and Anticancer Activity” (International Journal of Molecular Sciences, 2022).
Several values for one entry are separate records, joined by “and”; a condition that tells them apart may be missing. Equal entries are not always repeated.

Experiments:
[1] = test system: HepG2 cells; experiment: Analysis of 8-oxo-dG in cellular DNA by HPLC-UV-ED; format: cell-based, human; conditions: HepG2, 24 h; for [8-oxo-dG ± SD] × 10^6, 8-oxo-dG level in cellular DNA: concentration corresponding to total IC50, control 2.88 ± 0.17
Experimental: We also estimated 8-oxo-dG levels in DNA since 2-deoxyguanosine is most susceptible to oxidation among nucleosides and might serve as an oxidative DNA damage marker within the cells. […] Both compounds generate much higher oxidative disturbance in DNA than mitonafide, resulting in approximately 4- and 6-fold more 8-oxo-dG residues, respectively.
HepG2 cells (1 × 10^6) were seeded onto flasks (25 cm^2) and cultured for 16 h in the EMEM medium (Corning®) supplemented with 10% FBS (Corning®) and antibiotics (Sigma).Subsequently, the cells were treated for 24 h with the tested compounds at a concentration corresponding to their total IC50 values. Next, the cells were trypsinized, rinsed twice with PBS, and pelleted by centrifugation (200× g, 3 min). Total DNA was isolated from the treated cells and untreated control cells using a Genomic mini DNA isolation kit (A&A Biotechnology, Gdynia, Poland) according to the manufacturer′s protocol. The quality of the total DNA was assessed spectrophotometrically.
DNA (1 μg) was dissolved in sodium acetate buffer (10 μL, 40 mM, pH 5.3) containing ZnCl2 (0.1 mM) and digested with nuclease P1 (3 μg). Samples were incubated for 3 h at 37 °C. Subsequently, Tris–HCl (2 μL, 1 M, pH 8.0), alkaline phosphatase (1 U) were added and incubated for 2 h at 37 °C. All DNA hydrolysates were ultrafiltered using cut-off 10,000 Da filter units.
8-Oxo-dG and dG in hydrolysates were determined using HPLC-UV followed by electrochemical detection and ED (Coulochem III Electrochemical Detector, ESA, Inc., Chelmsford, MA, USA). DNA hydrolysates were chromatographed isocratically using ammonium acetate (50 mM pH 5.3)/methanol (93:7, v/v). Detection of dG was performed at 254 nm. Detection of 8-oxo-dG was performed by the electrochemical detector: guard cell + 400 mV, detector 1: +130 mV (as a screening electrode), detector 2: + 350 mV (as a measuring electrode set to sensitivity of 500 nA/V). All results are expressed as the mean ± SD.
To determine 8-oxo-dG levels, guanosine amount was necessary. The total number of 8-oxo-dG residues in the genome was calculated using the unique formula [54].

[2] = test system: HepG2 cells; experiment: Apoptosis/necrosis assay by flow cytometry (Annexin V); format: cell-based, human; conditions: HepG2, 24 h at total IC50, Annexin V
Experimental: To investigate whether compounds 54–61 induced apoptosis in HepG2 cells, we incubated the cells with these compounds for 24 h and performed a flow cytometry analysis. The concentration chosen for each compound corresponded to their total IC50 values. After incubation, the cells were stained with Annexin V Alexa Fluor 647 conjugate, which enabled detection of the externalization of phosphatidylserine, one of the earliest indicators of apoptosis. To eliminate the influence of the solvent (DMSO), we also analyzed its ability to induce apoptosis in a volume that corresponded to the highest concentration. […] The other compounds, 57, 58, 59, and 61, could not induce as high apoptosis as those mentioned above. Approximately one-third of cells targeted apoptotic pathways (33.4%, 39.1%, 23.1%, and 37.1%, respectively) when treated with these compounds (Figure 6).
HepG2 cells (3.85 × 10^5) were seeded onto 6-well plates, cultured in supplemented EMEM medium (Corning®) at 37 °C and 5% CO2 saturation, and incubated until 70–80% cell confluency was achieved. Subsequently, the cells were treated for 24 h, with the tested compounds 54–61 were added at a concentration corresponding to their total IC50 values. Next, the cells were detached with trypsin (Corning®) and washed twice with DPBS (1 mL) (Thermo Fisher Scientific, Waltham, MA, USA). In the meantime, annexin-binding buffer (10 mM HEPES, 140 mM NaCl, and 2.5 mM CaCl2, pH 7.4) was prepared. The cells were resuspended in annexin-binding buffer (100 μL per assay) and stained with Alexa Fluor™ 680 annexin V conjugate (ex/em: ~679/702 nm, Thermo Fisher Scientific, Waltham, MA, USA) according to the manufacturer’s protocol (5 μL of the annexin V conjugate was added to each 100 μL of cell suspension) and incubated for 15 min at RT, in the dark. After the incubation period, annexin-binding buffer (400 μL) was added, mixed gently, and the samples were kept on ice during the analysis. The cells were analyzed immediately after staining with […] by Accuri C6 flow cytometer (Becton Dickinson, Franklin Lake, NJ, USA) with excitation at 635 nm. The rate of apoptosis was evaluated immediately by FlowJo software.
Figure 6 Effect of compounds 54 (5.5 µM), 55 (3.4 µM), 56 (12 µM), 57 (3.1 µM), 58 (3.9 µM), 59 (5.4 µM), 60 (31 µM), and 61 (4.8 µM) on cell death in HepG2 cells. The cells were incubated with the tested compounds for 24 h at the concentration corresponding to the total IC50 values. Quantitative flow cytometry analysis was performed to evaluate apoptosis/necrosis induced by compounds after 24 h of treatment. Data are presented as the mean ± SD of three independent experiments. Statistical significance is indicated with asterisks: (ns) p > 0.05, (**) p < 0.01, (***) p < 0.001, and (****) p < 0.0001.

Substance | fold increase in number of 8-oxo-dG residues per 10^6 dG as compared to control [1] | fold more 8-oxo-dG residues than mitonafide [1] | [8-oxo-dG ± SD] × 10^6, 8-oxo-dG level in cellular DNA [1] [per 10^6 dG] | apoptosis rate, apoptotic cells [2] [%]
N-[2-N-Pyrrolidinyl)ethyl]-4-[(6-(2-(1,2-dicarba-closo-dodecaborane-1-yl)-ethylamino)hexyl)amino]-1,8-naphthalimide [Compound 60] | over 57 fold | approximately 4 fold | 164.35 ± 6.39 | 46.9
N-[2-N-Pyrrolidinyl)ethyl]-4-[(6-(2-(1,7-dicarba-closo-dodecaborane-1-yl)-ethylamino)hexyl)amino]-1,8-naphthalimide [Compound 61] | > 43 fold | 4 fold and ~6 fold | 123.92 ± 2.59 | 37.1
N-[2-(Dimethylamino)ethyl]-4-[(6-(2-(1,2-dicarba-closo-dodecaborane-1-yl)-ethylamino)hexyl)amino]-1,8-naphthalimide [Compound 58] | – | – | 96.58 ± 0.56 | 39.1
N-[2-(Dimethylamino)ethyl]-4-[(6-(2-(1,7-dicarba-closo-dodecaborane-1-yl)-ethylamino)hexyl)amino]-1,8-naphthalimide [Compound 59] | – | – | 81.64 ± 0.67 | 23.1
N-[2-(Pyrrolidin-1-yl)ethyl]-4-[(2-(2-(1,7-dicarba-closo-dodecaborane-1-yl)-ethylamino)ethyl)amino]-1,8-naphthalimide [Compound 57] | – | – | 57.54 ± 0.73 | 33.4
N-[2-(Dimethylamino)ethyl]-4-[(2-(2-(1,2-dicarba-closo-dodecaborane-1-yl)-ethylamino)ethyl)amino]-1,8-naphthalimide [Compound 54] | – | – | 43.17 ± 0.75 | 44.3
N-[2-(Dimethylamino)ethyl]-4-[(2-(2-(1,7-dicarba-closo-dodecaborane-1-yl)-ethylamino)ethyl)amino]-1,8-naphthalimide [Compound 55] | – | – | 74.85 ± 1.38 | 48.2
N-[2-(Pyrrolidin-1-yl)ethyl]-4-[(2-(2-(1,2-dicarba-closo-dodecaborane-1-yl)-ethylamino)ethyl)amino]-1,8-naphthalimide [Compound 56] | – | – | 52.31 ± 0.51 | 77.4
